Source: ChEMBL document CHEMBL1795339, “Novel purine-based fluoroaryl-1,2,3-triazoles as neuroprotecting agents: synthesis, neuronal cell culture investigations, and CDK5 docking studies” (Bioorg Med Chem Lett, 2011)
The source made the active and inactive calls. No cut-off for these calls is given here.

Each compound was assayed on Hippocampal neuron (assay: Neuroprotective activity against Amyloid beta-induced mouse hippocampal neuronal death at 1 uM pretreated for 1 hr before Amyloid beta treatment measured after 48 hrs using propidium iodide staining by fluorescence […] microscopy). Details: Hippocampus.
Type: functional, tissue-based

| Structure (SMILES) | Activity |
| --- | --- |
| Fc1ccccc1Cn1cc(Cn2cnc3c(NCc4ccccc4)nc(Cl)nc32)nn1 | Active |
| Fc1cccc(F)c1Cn1cc(Cn2cnc3c(NCc4ccccc4)nc(Cl)nc32)nn1 | Active |
| Clc1nc(NCc2ccccc2)c2ncn(Cc3cn(Cc4ccccc4)nn3)c2n1 | Active |
| Fc1c(F)c(F)c(Cn2cc(Cn3cnc4c(NCc5ccccc5)nc(Cl)nc43)nn2)c(F)c1F | inactive |
| CN1CC[C@H](c2c(O)cc(O)c3c(=O)cc(-c4ccccc4Cl)oc23)[C@H](O)C1 | Active |
| CC[C@H](CO)Nc1nc(NCc2ccccc2)c2ncn(C(C)C)c2n1 | Active |
